Assay results published in patent US20140072990A1, “FLUORESCENT SUBSTRATE FOR DETECTION OF ENZYMATIC ACTIVITY OF NITRILE-RELATED ENZYME” (The University of Tokyo, priority 2010, published 2014).
Read-outs that look alike come from different tables or passages of the source. One block for each compound: values may come before it.

Columns and labels:
[1] = Fluorescence quantum yield measurement of compounds 1 to 6; assay type: physicochemical
Protocol: Compounds 1 to 6 obtained above were measured for their fluorescence.
Compounds 1 to 6 were also measured for their fluorescence quantum yield (Φfl). […] With respect to compounds 5 and 6, it should be noted that their fluorescence quantum yields were calculated as values in isolated form based on the concentration ratio determined by HPLC.

[2] = Fluorescence quantum yield, absolute PL quantum yield measurement system (Quantaurus-QY); assay type: physicochemical; details: 0.2 μM, 0.02% DMSO, 200 mM sodium phosphate buffer pH 7.3, 470 nm excitation light
Protocol: The absorption spectra and fluorescence quantum yields of the compounds were measured as follows.
A 1 mM solution of compound 7 in DMSO was prepared and this solution was added to 200 mM sodium phosphate buffers of pH 2 to 12 to prepare 1 μM sample solutions containing 0.1% DMSO. These sample solutions were measured for their absorption spectra between 300 nm and 600 nm with an ultraviolet and visible spectrophotometer UV-2450 (Shimadzu Corporation, Japan). In addition, a 0.2 μM sample solution of compound 7 containing 0.02% DMSO in 200 mM sodium phosphate buffer (pH 7.3) was prepared and measured for its fluorescence quantum yield using an absolute PL quantum yield measurement system, Quantaurus-QY (Hamamatsu Photonics K.K., Japan), under irradiation with 470 nm excitation light.

[3] = system: Rhodococcus sp. strain SK92-derived nitrilase; assay: Nitrilase-catalyzed reaction for 24 hours, observation by the naked eye (Example 4); assay type: biochemical; details: 0.1 mM substrate stock, JM109/pUC118 control showed little change in color
Protocol: 10 μL of sodium phosphate buffer (pH 7.0), 75 μL of sterilized water and 5 μL of 0.1 mM nitrile fluorescent substrate (compound 2: dissolved in DMSO) were mixed together and pre-incubated at 30° C. A cell-free extract (10 μL), which had been prepared in the same manner as shown in Example 3, was added to initiate the reaction.

[4] = target: T1, Rhodococcus rhodochrous strain J1-derived nitrile hydratase (Rhodococcus rhodochrous, UniProt P21219+P21220); assay: Detection of nitrile hydratase-catalyzed enzymatic reaction using fluorometer (Example 5); assay type: biochemical; details: for increase in fluorescence in comparison with a solution not containing the cell-free extract: crude nitrile hydratase solution, 37° C., 5 h after addition, 490 nm excitation light
T1 construct: made in house; host or cells: Rhodococcus rhodochrous ATCC12674 transformed with pSJ034; crude cell-free extract
T1 sequence (P21219 1-203): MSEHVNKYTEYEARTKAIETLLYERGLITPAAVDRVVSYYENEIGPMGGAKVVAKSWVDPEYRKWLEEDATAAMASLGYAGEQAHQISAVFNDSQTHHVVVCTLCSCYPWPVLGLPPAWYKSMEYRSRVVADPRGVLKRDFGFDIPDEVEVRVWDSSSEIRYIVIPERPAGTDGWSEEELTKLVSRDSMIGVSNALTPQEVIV
T1 sequence (P21220 1-229): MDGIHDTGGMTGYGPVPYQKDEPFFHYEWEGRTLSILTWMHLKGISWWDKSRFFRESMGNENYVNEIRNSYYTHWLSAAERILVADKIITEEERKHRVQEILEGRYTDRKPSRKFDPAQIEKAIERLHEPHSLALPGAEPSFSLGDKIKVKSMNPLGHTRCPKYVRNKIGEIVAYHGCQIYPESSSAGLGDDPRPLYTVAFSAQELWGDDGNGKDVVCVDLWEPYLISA
Protocol: Nitrile hydratase solution was prepared in the same manner as shown in Example 2.
(§1) 178 μL of sodium phosphate buffer (200 mM, pH 7.3) and 2 μL of 1 mM fluorescent substrate (compound 7 or compound 2: dissolved in DMSO) were mixed together and pre-incubated at 37° C. The cell-free extract prepared above (20 μL) was added to initiate the reaction. Sampling was conducted at one hour intervals by addition of 380 μL sodium phosphate buffer (200 mM, pH 7.3) to 20 μL reaction solution, and each sample was measured for its fluorescence using a spectrophotofluorometer, model F-4500 (Hitachi High-Technologies Corporation, Japan). The measurement was performed with 490 nm excitation light under the following conditions: a slit width of 2.5 nm/2.5 nm, a photomultiplier voltage of 700 V and 37° C.

[5] = system: Rhodococcus sp. strain SK92-derived nitrilase; assay: Nitrilase-catalyzed reaction with cell-free extract, detection with fluorescence imager (Example 3); assay type: biochemical; details: 30° C., 1 hour, excited at 488 nm, detected at 530 nm; JM109/pUC118 control showed no change
Protocol: (§2) 10 μL of sodium phosphate buffer (pH 7.0), 75 μL of sterilized water and 5 μL of 0.01 mM nitrile fluorescent substrate (compound 2: dissolved in 10% DMSO) were mixed together and pre-incubated at 30° C. The cell-free extract prepared above (10 μL) was added to initiate the reaction. After the reaction at 30° C. for 1 hour, the mixture was transferred to a 96-well microplate and fluorescence was detected with a fluorescence imager (BioRad Pharos FX molecular Imager, excited at 488 nm, detected at 530 nm).
A recombinant E. coli, JM109/pSK002, which highly expresses Rhodococcus sp. strain SK92-derived nitrilase (JP 8-173169 A) was inoculated into 1 ml of a 50 ampicillin-containing LB medium (1% Bactotryptone, 0.5% Bactoyeast extract, 0.5% NaCl) and pre-cultured at 37° C. for 7 hours. The culture broth was taken in a volume of 0.1 ml and added to 100 ml of the same medium (containing 50 μg/ml ampicillin and 1 mM IPTG), followed by shaking culture at 37° C. for 15 hours. The resulting culture broth was centrifuged (3,700×g, 10 minutes, 4° C.) to collect the cells, which were then washed with 10 mM sodium phosphate buffer (pH 7.0) and suspended in the same buffer. As a control strain, JM109/pUC118 was used. […]
In the same manner as shown in Example 2, the reaction was performed using a nitrile fluorescent substrate (compound 2), followed by detection with a fluorescence imager.

[6] = target: T1, Rhodococcus rhodochrous strain J1-derived nitrile hydratase; assay: Nitrile hydratase-catalyzed reaction with cell-free extract, detection with fluorescence imager (Example 2); assay type: biochemical; details: 30° C., 1 hour, excited at 488 nm, detected at 530 nm; vector pK4 control showed no change
Excerpt: Plasmid pSJ034 designed to constitutively express Rhodococcus rhodochrous strain J1-derived nitrile hydratase in Rhodococcus bacterial cells was introduced into Rhodococcus rhodochrous strain ATCC12674. pSJ034 has been prepared from plasmid pSJ023 as described in the specification of JP 10-337185 A. pSJ023 was deposited as a transformant, R. rhodochrous ATCC12674/pSJ023 (FERM BP-6232), with the International Patent Organism Depositary, the National Institute of Advanced Industrial Science and Technology.
Rhodococcus rhodochrous strain ATCC12674 was transformed with plasmid pSJ034 to prepare ATCC12674/pSJ034. The strain 12674 was also transformed with vector pK4 for use in a control experiment.
The colony was cultured as follows. The colony was inoculated into a kanamycin (50 mg/L)-containing MYK medium (10 ml) and pre-cultured at 30° C. for 24 hours. […]
as §2, with “The cell-free extract prepared above (10 μL) was added to initiate the reaction.” left out

[7] = system: Rhodococcus sp. strain SK92-derived nitrilase; assay: HPLC analysis on nitrilase-catalyzed reaction solution (Example 6); assay type: biochemical
Protocol: (§3) After reaction at 37° C. for 5 hours as described above, the reaction solution was analyzed by HPLC under the following conditions. • Model: fluid delivery pump PU-2080 (JASCO) • Column: Inertsil ODS-3 (4.6×250 mm) column (GL Sciences Inc.) • Solvent: eluted with a linear gradient from 75% acetonitrile/0.1% TFA in water (0 min) to 15% acetonitrile/0.1% TFA in water (30 min) • Detection: detector MD-2010 (JASCO), monitored by absorption at 500 nm
Nitrilase activity was analyzed in accordance with the procedures shown in Example 4.

[8] = system: Rhodococcus sp. strain SK92-derived nitrilase; assay: Detection of nitrilase-catalyzed enzymatic reaction using fluorometer (Example 6); assay type: biochemical
Protocol: as §1
Nitrilase solution was prepared in the same manner as shown in Example 3.
Detection was conducted in accordance with the procedures shown in Example 5, provided that the compound used in the experiment was compound 7 and the enzyme solutions used were a cell-free extract derived from JM109/pSK002 (containing nitrilase) and a cell-free extract derived from the above control strain JM109/pTrc99A (having no nitrilase activity).

[9] = target: T1, Rhodococcus rhodochrous strain J1-derived nitrile hydratase; assay: HPLC analysis on nitrile hydratase-catalyzed reaction solution (Example 5); assay type: biochemical; details: 37° C., 5 hours, absorption at 500 nm
Protocol: as §3

[10] = Stability of product in nitrile hydratase-catalyzed reaction solution by HPLC (Example 7); assay type: in vitro ADME; details: absorption at 500 nm
Protocol: (§4) Product stability after enzymatic reaction was studied by HPLC analysis.
(§5) For HPLC analysis of the nitrile hydratase-catalyzed reaction solution (160 μL), the above pump, column, solvent conditions and detector were used to monitor absorption at 500 nm. On the other hand, for analysis of the nitrilase-catalyzed reaction solution (160 μL), the same procedure as used for analysis of the nitrile hydratase-catalyzed reaction solution was repeated to monitor absorption at 500 nm.

[11] = Stability of product in nitrilase-catalyzed reaction solution by HPLC (Example 7); assay type: in vitro ADME; details: absorption at 500 nm
Protocol: as §4, §5

[12] = calculated as values in isolated form based on the concentration ratio determined by HPLC (mixture of compounds 5 and 6)

Structure (SMILES): COC(=O)c1ccc(C#N)cc1-c1c2ccc(=O)cc-2oc2cc(O)ccc12 [compound 1]
Fluorescence quantum yield (Φf1) [1]: 0.007

Structure (SMILES): COC(=O)c1cc(C#N)ccc1-c1c2ccc(=O)cc-2oc2cc(O)ccc12 [compound 2]
fluorescence quantum yield [2]: 0.172
Fluorescence quantum yield (Φf1) [1]: 0.161
fluorescence observed by the naked eye with nitrilase-expressing recombinant cell-free extract [3]: significant green fluorescence was observed
increase in fluorescence in comparison with a solution not containing the cell-free extract [4]: ~3.9 fold
change in intensity of fluorescence with nitrilase-expressing recombinant cell-free extract [5]: significant increase in the intensity of fluorescence
change in intensity of fluorescence with nitrile hydratase-expressing recombinant cell-free extract [6]: significant increase in the intensity of fluorescence

Structure (SMILES): COC(=O)c1ccc(C(N)=O)cc1-c1c2ccc(=O)cc-2oc2cc(O)ccc12 [compound 3]
Fluorescence quantum yield (Φf1) [1]: 0.018

Structure (SMILES): N#Cc1ccc(-c2c3ccc(=O)cc-3oc3cc(O)ccc23)c(C(=O)OCc2ccc(Cl)cc2)c1 [compound 7, 5-cyanofluorescein-4-chlorobenzyl ester]
fluorescence quantum yield [2]: 0.154
HPLC peak of substrate after nitrilase-catalyzed reaction ([7]; JM109/pSK002-derived cell-free extract, absorption at 500 nm): disappeared, while a peak of a new product generated by the enzymatic reaction appeared
reaction product by HPLC with control cell-free extract ([7]; JM109/pTrc99A-derived cell-free extract): no reaction product was observed
increase in fluorescence in comparison with a solution not containing the cell-free extract [4]: ~7.2 fold
increase in fluorescence relative to that of compound 2 ([4]; nitrile hydratase reaction, compound 7 versus compound 2): 1.5 fold
increase in fluorescence in comparison with the absence of the cell-free extract ([8]; JM109/pSK002-derived cell-free extract (containing nitrilase), 5 h after addition): ~7.5 fold
increase in fluorescence with control cell-free extract ([8]; JM109/pTrc99A-derived cell-free extract (having no nitrilase activity)): little increase in its fluorescence
HPLC peak of substrate after nitrile hydratase-catalyzed reaction [9]: disappeared, while a peak of a new product generated by the enzymatic reaction appeared

Next, values leading:

Fluorescence quantum yield (Φf1) [1]: 0.397
Structure (SMILES): COC(=O)c1cc(C(N)=O)ccc1-c1c2ccc(=O)cc-2oc2cc(O)ccc12 [compound 4]

Fluorescence quantum yield (Φf1) [1, 12]: 0.0729
Structure (SMILES): COC(=O)c1ccc(C(=O)O)cc1-c1c2ccc(=O)cc-2oc2cc(O)ccc12 [compound 5]

Fluorescence quantum yield (Φf1) [1, 12]: 0.565
Structure (SMILES): COC(=O)c1cc(C(=O)O)ccc1-c1c2ccc(=O)cc-2oc2cc(O)ccc12 [compound 6]

HPLC peak corresponding to ester hydrolysis product 5-CONH2 fluorescein [10]: not observed
Structure (SMILES): NC(=O)c1ccc(-c2c3ccc(=O)cc-3oc3cc(O)ccc23)c(C(=O)OCc2ccc(Cl)cc2)c1 [compound 9, 5-CONH2 fluorescein 4-chlorobenzyl ester]

HPLC peak corresponding to ester hydrolysis product 5-carboxylfluorescein [11]: not observed
Structure (SMILES): O=C(O)c1ccc(-c2c3ccc(=O)cc-3oc3cc(O)ccc23)c(C(=O)OCc2ccc(Cl)cc2)c1 [compound 11]
